From ChEMBL document CHEMBL1909046, “DrugMatrix in vitro pharmacology data” come the findings set out here.

The target of one series is T1, B2 bradykinin receptor (Homo sapiens, UniProt P30411). Also: in other assays of this panel Not Active means under 50% inhibition at 10 µM.
T1 sequence (P30411 whole entry): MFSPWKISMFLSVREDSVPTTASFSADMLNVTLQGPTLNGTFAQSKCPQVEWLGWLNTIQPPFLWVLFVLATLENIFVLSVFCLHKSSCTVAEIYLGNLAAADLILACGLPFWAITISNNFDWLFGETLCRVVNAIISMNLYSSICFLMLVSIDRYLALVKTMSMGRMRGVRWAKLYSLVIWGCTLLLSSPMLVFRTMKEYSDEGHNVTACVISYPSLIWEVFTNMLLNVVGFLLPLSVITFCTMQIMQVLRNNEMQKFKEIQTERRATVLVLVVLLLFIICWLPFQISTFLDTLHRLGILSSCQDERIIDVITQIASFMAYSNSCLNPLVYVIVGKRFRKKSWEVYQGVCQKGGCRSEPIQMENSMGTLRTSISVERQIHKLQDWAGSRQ
The format is cell membranes, Membrane. The conditions noted are these: chem-1.

In series [1] the target is T2, Cholecystokinin receptor type A (Homo sapiens, UniProt P32238). Also: in other assays of this panel Not Active means under 50% inhibition at 10 µM.
T2 sequence (P32238 whole entry): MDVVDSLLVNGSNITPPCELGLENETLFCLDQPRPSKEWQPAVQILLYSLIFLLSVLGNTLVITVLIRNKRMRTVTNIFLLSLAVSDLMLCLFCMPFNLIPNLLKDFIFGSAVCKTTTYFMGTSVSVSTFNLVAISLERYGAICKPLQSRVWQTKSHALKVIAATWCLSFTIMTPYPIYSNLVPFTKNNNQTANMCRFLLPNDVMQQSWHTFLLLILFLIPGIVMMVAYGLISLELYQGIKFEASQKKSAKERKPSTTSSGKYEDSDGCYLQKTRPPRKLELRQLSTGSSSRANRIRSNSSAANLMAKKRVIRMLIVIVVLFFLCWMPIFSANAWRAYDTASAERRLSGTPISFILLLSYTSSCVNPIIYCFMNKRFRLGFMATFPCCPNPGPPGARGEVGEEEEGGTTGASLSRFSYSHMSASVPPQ
In kind it is cell membranes, Membrane. Particulars: 1321-n1.

Series [2] in a line: DRUGMATRIX: GABAA, Chloride Channel, TBOB radioligand binding (ligand: [3H] TBOB). The format is cell membranes, Rattus norvegicus, Wistar, Cerebral cortex, Membrane. The conditions noted are these: Not Active = under 50% inhibition at 10 µM.
A further series has as its target Nitric oxide synthase 1 (Rattus norvegicus, UniProt P29476). In kind it is tissue-based, Cerebellum. Also: in other assays of this panel Not Active means under 50% inhibition at 10 µM.
Another series deals with T3, Progesterone receptor (Bos taurus, UniProt Q690N0).
T3 sequence (Q690N0 whole entry): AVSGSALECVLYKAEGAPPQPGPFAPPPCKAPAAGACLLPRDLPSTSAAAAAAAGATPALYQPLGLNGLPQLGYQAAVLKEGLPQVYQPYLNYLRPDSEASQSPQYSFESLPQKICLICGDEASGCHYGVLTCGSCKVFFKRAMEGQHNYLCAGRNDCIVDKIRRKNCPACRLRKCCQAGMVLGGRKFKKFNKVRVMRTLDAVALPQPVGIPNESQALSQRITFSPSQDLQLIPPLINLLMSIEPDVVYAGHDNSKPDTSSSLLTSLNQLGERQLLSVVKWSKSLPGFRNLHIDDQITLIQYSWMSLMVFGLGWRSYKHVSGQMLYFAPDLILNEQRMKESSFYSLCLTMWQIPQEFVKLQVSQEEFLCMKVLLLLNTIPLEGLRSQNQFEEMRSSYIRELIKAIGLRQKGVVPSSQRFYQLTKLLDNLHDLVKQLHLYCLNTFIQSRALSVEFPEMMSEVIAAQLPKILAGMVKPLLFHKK
Nature of the series: DRUGMATRIX: Progesterone radioligand binding (ligand: [3H] R-5020). In kind it is tissue-based, Uterus. Particulars: Not Active = under 50% inhibition at 10 µM; for Ki: read-out: Ki.

Series [3] addresses Mitogen-activated protein kinase 3 (Homo sapiens, UniProt P27361). Nature of the series: DRUGMATRIX: Protein Serine/Threonine Kinase, ERK1 enzyme inhibition (substrate: Myelin Basic Protein). Also on record: species or system Escherichia coli. Particulars: Not Active = under 50% inhibition at 10 µM.
The target of a further series is T4, Cytochrome P450 2A6 (Homo sapiens, UniProt P11509). Also: in other assays of this panel Not Active means under 50% inhibition at 10 µM.
T4 sequence (P11509 whole entry): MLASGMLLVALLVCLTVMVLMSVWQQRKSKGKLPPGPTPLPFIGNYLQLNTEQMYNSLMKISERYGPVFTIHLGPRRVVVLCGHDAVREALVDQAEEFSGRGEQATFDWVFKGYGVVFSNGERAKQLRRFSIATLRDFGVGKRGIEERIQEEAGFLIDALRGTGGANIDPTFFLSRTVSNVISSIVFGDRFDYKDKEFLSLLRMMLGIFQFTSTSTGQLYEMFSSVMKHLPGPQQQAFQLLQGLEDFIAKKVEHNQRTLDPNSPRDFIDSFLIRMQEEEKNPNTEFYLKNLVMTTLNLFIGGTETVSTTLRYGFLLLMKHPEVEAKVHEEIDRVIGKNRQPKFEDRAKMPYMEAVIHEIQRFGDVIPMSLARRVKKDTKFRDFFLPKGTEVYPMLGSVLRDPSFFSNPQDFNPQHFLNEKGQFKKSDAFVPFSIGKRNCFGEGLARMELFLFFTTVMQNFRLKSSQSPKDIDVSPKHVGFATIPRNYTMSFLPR
Particulars: bti-tn-5b1-4.

Nitric oxide synthase 1, sequence (P29476 whole entry): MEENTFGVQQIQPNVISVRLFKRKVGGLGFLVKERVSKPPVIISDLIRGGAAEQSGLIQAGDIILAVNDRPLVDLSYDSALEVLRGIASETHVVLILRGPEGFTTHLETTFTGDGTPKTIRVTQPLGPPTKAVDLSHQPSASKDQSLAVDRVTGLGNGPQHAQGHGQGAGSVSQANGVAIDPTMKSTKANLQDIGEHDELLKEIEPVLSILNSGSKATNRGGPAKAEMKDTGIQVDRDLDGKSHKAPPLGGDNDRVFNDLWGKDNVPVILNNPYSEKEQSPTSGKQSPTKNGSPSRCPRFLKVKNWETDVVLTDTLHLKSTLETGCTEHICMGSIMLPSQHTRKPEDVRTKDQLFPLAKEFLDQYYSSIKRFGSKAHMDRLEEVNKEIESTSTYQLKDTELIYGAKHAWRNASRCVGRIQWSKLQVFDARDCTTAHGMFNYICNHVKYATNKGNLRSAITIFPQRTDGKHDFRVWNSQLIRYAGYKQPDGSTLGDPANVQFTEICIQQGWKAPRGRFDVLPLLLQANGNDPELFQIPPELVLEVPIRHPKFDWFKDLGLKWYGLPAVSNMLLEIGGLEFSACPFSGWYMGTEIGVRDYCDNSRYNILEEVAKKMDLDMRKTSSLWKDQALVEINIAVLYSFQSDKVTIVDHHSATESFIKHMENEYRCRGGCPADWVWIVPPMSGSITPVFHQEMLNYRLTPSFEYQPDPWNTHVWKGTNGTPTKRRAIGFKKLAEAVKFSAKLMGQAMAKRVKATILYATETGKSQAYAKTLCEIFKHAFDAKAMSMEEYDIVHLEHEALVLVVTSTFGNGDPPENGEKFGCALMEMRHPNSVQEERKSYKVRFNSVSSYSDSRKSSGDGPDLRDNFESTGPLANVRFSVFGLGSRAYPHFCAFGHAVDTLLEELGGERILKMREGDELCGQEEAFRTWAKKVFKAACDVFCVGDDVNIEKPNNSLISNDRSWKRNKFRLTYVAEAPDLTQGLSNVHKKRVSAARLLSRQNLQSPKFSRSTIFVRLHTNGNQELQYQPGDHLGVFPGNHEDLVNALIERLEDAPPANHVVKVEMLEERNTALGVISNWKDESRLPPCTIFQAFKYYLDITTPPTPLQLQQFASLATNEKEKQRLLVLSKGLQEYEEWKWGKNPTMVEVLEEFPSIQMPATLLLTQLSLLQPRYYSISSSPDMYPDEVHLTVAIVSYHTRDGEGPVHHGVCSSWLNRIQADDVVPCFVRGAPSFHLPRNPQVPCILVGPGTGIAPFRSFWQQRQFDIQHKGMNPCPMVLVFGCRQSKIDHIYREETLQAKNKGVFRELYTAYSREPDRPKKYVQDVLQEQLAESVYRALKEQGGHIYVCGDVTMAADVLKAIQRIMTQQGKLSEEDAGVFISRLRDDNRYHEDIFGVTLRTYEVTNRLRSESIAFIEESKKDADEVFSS
Mitogen-activated protein kinase 3, sequence (P27361 whole entry): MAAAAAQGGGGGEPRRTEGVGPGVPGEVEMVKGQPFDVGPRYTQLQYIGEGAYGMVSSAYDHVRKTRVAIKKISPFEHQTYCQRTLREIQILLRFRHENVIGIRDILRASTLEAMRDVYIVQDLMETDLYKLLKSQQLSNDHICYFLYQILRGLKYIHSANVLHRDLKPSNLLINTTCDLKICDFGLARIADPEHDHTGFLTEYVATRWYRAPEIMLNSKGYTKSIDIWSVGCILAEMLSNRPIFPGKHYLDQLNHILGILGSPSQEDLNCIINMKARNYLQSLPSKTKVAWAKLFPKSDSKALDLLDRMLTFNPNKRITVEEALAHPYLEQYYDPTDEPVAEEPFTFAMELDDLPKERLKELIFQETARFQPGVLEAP

For `CC(=O)OCC(=O)[C@@]1(OC(C)=O)[C@@H](C)C[C@H]2[C@@H]3C[C@H](F)C4=CC(=O)C=C[C@]4(C)[C@@]3(F)[C@@H](O)C[C@@]21C` [DIFLORASONE DIACETATE], the IC50 result was “Not Active” at B2 bradykinin receptor; “Not Active” in series [1]; “Not Active” in series [2]; “Not Active” at Nitric oxide synthase 1; 116 nM at Progesterone receptor (read-out: IC50); “Not Active” in series [3]. Besides, the IC50 entry at Cytochrome P450 2A6 is recorded as “Not Active”. The Ki result in series [2] is “Not Active”; at Progesterone receptor it was 15 nM; on Cytochrome P450 2A6, “Not Active”.

`COc1ccc([C@@H]2Sc3ccccc3N(CCN(C)C)C(=O)[C@@H]2OC(C)=O)cc1` [DILTIAZEM]: the half-maximal inhibitory concentration (IC50) result (against B2 bradykinin receptor; in series [1]; in series [2]; against Nitric oxide synthase 1; at Progesterone receptor; in series [3]) was “Not Active” each time. On Cytochrome P450 2A6, the concentration for half-maximal inhibition (IC50) result was “Not Active”. Moreover, the Ki result (in series [2]; on Cytochrome P450 2A6) was “Not Active” each time.

Turning to `CCc1ccc(C(=O)C(C)CN2CCCCC2)cc1` (centres undefined) [EPERISONE], the IC50 result (against B2 bradykinin receptor; in series [1]; in series [2]; against Nitric oxide synthase 1; at Progesterone receptor; in series [3]) was “Not Active” throughout. Further, the IC50 result against Cytochrome P450 2A6 is “Not Active”. The Ki result (in series [2]; on Cytochrome P450 2A6) was “Not Active” in each case.

`C=C1CC[C@H](O)C/C1=C/C=C1\CCC[C@]2(C)[C@@H]([C@H](C)/C=C/[C@H](C)C(C)C)CC[C@@H]12` [ERGOCALCIFEROL]: the IC50 result (against B2 bradykinin receptor; in series [1]; in series [2]; against Nitric oxide synthase 1; at Progesterone receptor; in series [3]) was “Not Active” each time. The half-inhibitory concentration (IC50) result on Cytochrome P450 2A6 was “Not Active”. In addition, the Ki entry (in series [2]; at Cytochrome P450 2A6) was “Not Active” each time.

With `CN1C[C@H](C(=O)N[C@]2(C)O[C@@]3(O)[C@@H]4CCCN4C(=O)[C@H](Cc4ccccc4)N3C2=O)C=C2c3cccc4[nH]cc(c34)C[C@H]21` [ERGOTAMINE], the IC50 entry (on B2 bradykinin receptor; in series [1]; in series [2]; against Nitric oxide synthase 1; on Progesterone receptor; in series [3]) was “Not Active” throughout. Moreover, the IC50 entry against Cytochrome P450 2A6 is “Not Active”. Moreover, the Ki entry (in series [2]; at Cytochrome P450 2A6) was “Not Active” in each case.

On to `Cc1c(-c2ccccc2)oc2c(C(=O)OCCN3CCCCC3)cccc2c1=O` [FLAVOXATE], for which the concentration for half-maximal inhibition (IC50) result (at B2 bradykinin receptor; in series [1]; in series [2]; against Nitric oxide synthase 1; on Progesterone receptor; in series [3]) was “Not Active” each time. Besides, the IC50 result at Cytochrome P450 2A6 is given as “Not Active”. Also, the Ki result (in series [2]; on Cytochrome P450 2A6) was “Not Active” throughout.

As to `Nc1nc(=O)[nH]cc1F` [FLUCYTOSINE], the IC50 result (on B2 bradykinin receptor; in series [1]; in series [2]; against Nitric oxide synthase 1; on Progesterone receptor; in series [3]) was “Not Active” each time. Besides, the IC50 result against Cytochrome P450 2A6 was “Not Active”. For the same compound, the Ki entry (in series [2]; on Cytochrome P450 2A6) was “Not Active” throughout.

As for `O=C1OC2(c3ccc(O)cc3Oc3cc(O)ccc32)c2ccccc21` [FLUORESCEIN], the IC50 result (at B2 bradykinin receptor; in series [1]; in series [2]; on Nitric oxide synthase 1; on Progesterone receptor; in series [3]) was “Not Active” in each case. The IC50 entry on Cytochrome P450 2A6 is “Not Active”. The Ki entry (in series [2]; at Cytochrome P450 2A6) was “Not Active” each time.

Consider `CC(=O)[C@@]1(O)CC[C@H]2[C@@H]3C[C@H](C)C4=CC(=O)C=C[C@]4(C)[C@@]3(F)[C@@H](O)C[C@@]21C` [FLUOROMETHOLONE], for which the IC50 entry at B2 bradykinin receptor is “Not Active”; in series [1] it was “Not Active”; in series [2], “Not Active”; on Nitric oxide synthase 1, “Not Active”; on Progesterone receptor (read-out: IC50) it was 815 nM; in series [3], “Not Active”. Besides, the IC50 result at Cytochrome P450 2A6 was “Not Active”. For the same compound, the results for the Ki result (in series [2]; at Progesterone receptor; on Cytochrome P450 2A6) were “Not Active”, 106 nM and “Not Active”, respectively.

Regarding `O=c1[nH]cc(F)c(=O)[nH]1` [FLUOROURACIL], the IC50 entry (at B2 bradykinin receptor; in series [1]; in series [2]; at Nitric oxide synthase 1; at Progesterone receptor; in series [3]) was “Not Active” throughout. On Cytochrome P450 2A6, the IC50 entry is on record as “Not Active”. Besides, the Ki result (in series [2]; on Cytochrome P450 2A6) was “Not Active” throughout.

Consider `CC(C)n1c(/C=C/C(O)CC(O)CC(=O)O)c(-c2ccc(F)cc2)c2ccccc21` (centres undefined) [FLUVASTATIN], for which the IC50 result (on B2 bradykinin receptor; in series [1]; in series [2]; against Nitric oxide synthase 1; at Progesterone receptor; in series [3]) was “Not Active” each time. At Cytochrome P450 2A6, the IC50 entry was “Not Active”. In addition, the Ki entry (in series [2]; at Cytochrome P450 2A6) was “Not Active” throughout.

Turning to `NCC1(CC(=O)O)CCCCC1` [GABAPENTIN], the IC50 entry (at B2 bradykinin receptor; in series [1]; in series [2]; against Nitric oxide synthase 1; at Progesterone receptor; in series [3]) was “Not Active” each time. Besides, the IC50 result at Cytochrome P450 2A6 is “Not Active”. Further, the inhibition constant (Ki) result (in series [2]; at Cytochrome P450 2A6) was “Not Active” throughout.

Take `CC[N+](CC)(CC)CCOc1cccc(OCC[N+](CC)(CC)CC)c1OCC[N+](CC)(CC)CC.[I-].[I-].[I-]` [GALLAMINE TRIETHIODIDE]: the IC50 entry (at B2 bradykinin receptor; in series [1]; in series [2]; on Nitric oxide synthase 1; on Progesterone receptor; in series [3]) was “Not Active” each time. In addition, the IC50 result at Cytochrome P450 2A6 is “Not Active”. The Ki result (in series [2]; at Cytochrome P450 2A6) was “Not Active” throughout.
